Reference: PMC3602205 (Chemico-biological interactions, 2013)
Positions count from the first letter of the chain named.

How the values were obtained:
[1] = target: T1, Ct-FDH (carboxy-terminal ALDH domain of 10-formyltetrahydrofolate dehydrogenase, Aldh1l1) (Rattus norvegicus, UniProt P28037); assay: quenching of tryptophan fluorescence; assay type: binding
T1 sequence (P28037 400-902): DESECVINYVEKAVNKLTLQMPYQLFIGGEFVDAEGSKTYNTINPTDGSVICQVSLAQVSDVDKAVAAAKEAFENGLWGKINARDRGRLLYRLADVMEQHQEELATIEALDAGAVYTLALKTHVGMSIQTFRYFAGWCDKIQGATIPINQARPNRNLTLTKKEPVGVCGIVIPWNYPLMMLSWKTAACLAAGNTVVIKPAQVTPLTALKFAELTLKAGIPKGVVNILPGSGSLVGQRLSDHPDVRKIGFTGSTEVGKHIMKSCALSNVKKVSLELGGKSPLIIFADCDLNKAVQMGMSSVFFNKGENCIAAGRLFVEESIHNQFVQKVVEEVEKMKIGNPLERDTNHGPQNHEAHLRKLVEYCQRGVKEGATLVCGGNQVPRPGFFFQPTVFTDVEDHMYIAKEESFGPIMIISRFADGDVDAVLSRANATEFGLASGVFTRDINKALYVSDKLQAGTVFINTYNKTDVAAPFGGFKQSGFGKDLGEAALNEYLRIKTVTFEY

[2] = target: T2, Ct-FDH (carboxy-terminal ALDH domain of 10-formyltetrahydrofolate dehydrogenase, Aldh1l1) (Rattus norvegicus, UniProt P28037, C707S); assay: quenching of tryptophan fluorescence; assay type: binding
T2 sequence (P28037 400-902 C707S): T1 sequence (P28037 400-902) with C308S

SMILES | Kd [1] [µM] | Kd [2] [µM]
NC(=S)c1ccc[n+]([C@@H]2O[C@H](COP(=O)(O)OP(=O)(O)OC[C@H]3O[C@@H](n4cnc5c(N)ncnc54)[C@H](OP(=O)(O)O)[C@@H]3O)[C@@H](O)[C@H]2O)c1 [thio-NADP^+] | 17 ± 0.8 | –
NC(=O)c1ccc[n+]([C@@H]2O[C@H](COP(=O)(O)OP(=O)(O)OC[C@H]3O[C@@H](n4cnc5c(N)ncnc54)[C@H](OP(=O)(O)O)[C@@H]3O)[C@@H](O)[C@H]2O)c1 [NADP^+] | – | 11 ± 1.5
